Data published in the supplement of paper PMC11061612.

How the values were obtained:
Experiment in all cases: Bliss excess, mean over the matrix (fraction); higher = more synergy
[1] = tested on: 639-V (Bladder Carcinoma)
Method in brief: (§1)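 Cell lines grown in DMEM/F12 or RPMI with 10% FBS were plated in 1536-well plates and held 24 hours at 37°C, 5% CO2 before 72 hours of exposure to two-drug dose matrices, with DMSO typically at 0.2%. CellTiter-Glo 2.0 luminescence gave viability, which was converted to inhibition. Vehicle wells were set to 0 and blank wells to 1. Combination Emax is the second-highest inhibition in the matrix, and Bliss excess is the observed combination effect minus the expected EA + EB − EA·EB, where EA and EB are the single-agent effects.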

[2] = tested on: CAPAN-1 (Pancreatic Carcinoma)
Method in brief: as §1

[3] = tested on: EN (Endometrial Carcinoma)
Method in brief: as §1

[4] = tested on: HCC-15 (Squamous Cell Lung Carcinoma)
Method in brief: as §1

[5] = tested on: HDLM-2 (Hodgkin's Lymphoma)
Method in brief: as §1

[6] = tested on: HO-1-u-1 (Oral Cavity Carcinoma)
Method in brief: as §1

[7] = tested on: Hs-633T (Other Solid Carcinomas)
Method in brief: as §1

[8] = tested on: K5 (Thyroid Gland Carcinoma)
Method in brief: as §1

[9] = tested on: LoVo (Colorectal Carcinoma)
Method in brief: as §1

[10] = tested on: MHH-PREB-1 (B-Cell Non-Hodgkin's Lymphoma)
Method in brief: as §1

[11] = tested on: Mewo (Melanoma)
Method in brief: as §1

[12] = tested on: NB14 (Neuroblastoma)
Method in brief: as §1

[13] = tested on: NCI-H2461 (Mesothelioma)
Method in brief: as §1

[14] = tested on: NCI-H2795 (Mesothelioma)
Method in brief: as §1

[15] = tested on: NCI-H69 (Small Cell Lung Carcinoma)
Method in brief: as §1

[16] = tested on: RPMI-6666 (Non-Cancerous)
Method in brief: as §1

[17] = tested on: SH-4 (Melanoma)
Method in brief: as §1

[18] = tested on: SK-OV-3 (Ovarian Carcinoma)
Method in brief: as §1

[19] = tested on: SW626 (Colorectal Carcinoma)
Method in brief: as §1

[20] = tested on: UMC-11 (Other Solid Carcinomas)
Method in brief: as §1

SMILES	Bliss excess [1]	Bliss excess [2]	Bliss excess [3]	Bliss excess [4]	Bliss excess [5]	Bliss excess [6]	Bliss excess [7]	Bliss excess [8]	Bliss excess [9]	Bliss excess [10]	Bliss excess [11]	Bliss excess [12]	Bliss excess [13]	Bliss excess [14]	Bliss excess [15]	Bliss excess [16]	Bliss excess [17]	Bliss excess [18]	Bliss excess [19]	Bliss excess [20]
COc1cccc(OCCCN)c1-c1cc(Nc2cnc(C#N)cn2)n[nH]1 [Prexasertib] + C=CCn1c(=O)c2cnc(Nc3ccc(N4CCN(C)CC4)cc3)nc2n1-c1cccc(C(C)(C)O)n1 [AZD1775] (first compound max 1 µM, partner max 1 µM)	0.178	-0.0069	0.0115	0.0293	-0.0404	0.0122	0.0796	0.0807	0.0269	0.0729	0.0641	0.0486	-0.0573	0.0221	0.151	0.0119	0.0591	0.0324	0.0304	0.0712
COc1cccc(OCCCN)c1-c1cc(Nc2cnc(C#N)cn2)n[nH]1 [Prexasertib] + CCc1c2c(nc3ccc(O)cc13)-c1cc3c(c(=O)n1C2)COC(=O)[C@]3(O)CC [SN-38] (first compound max 1 µM, 7x7, partner max 0.3 µM)	-0.0477	-0.0624	0.0282	0.0659	-0.0701	0.0348	-0.0609	-0.0708	-0.0727	0.0153	0.0881	0.0073	-0.114	-0.106	0.162	-0.0554	-0.0831	-0.0344	-0.0156	0.0774
COc1cccc(OCCCN)c1-c1cc(Nc2cnc(C#N)cn2)n[nH]1 [Prexasertib] + CN(C)CCCOc1ccc(-c2ccc3ncc4c(c3c2)n(C2CCOCC2)c(=O)n4C)cn1 [AZD0156] (first compound max 1 µM, 7x7, partner max 1 µM)	0.0592	-0.0747	-0.0459	-0.0156	-0.0727	0.0251	-0.0151	-0.0339	0.0116	-0.0167	0.0034	-0.033	-0.0647	0.05	-0.081	0.0064	0.0424	-0.066	-0.0035	-0.0236
COc1cccc(OCCCN)c1-c1cc(Nc2cnc(C#N)cn2)n[nH]1 [Prexasertib] + C[C@@H]1COCCN1C2=NC(=NC(=C2)C3(CC3)[S@](=N)(=O)C)C4=C5C=CNC5=NC=C4 [AZD6738] (first compound max 1 µM, 7x7, partner max 10 µM)	0.0838	-0.0436	-0.0416	0.0058	-0.0669	-0.0013	0.0095	0.0037	-0.0296	-0.0643	-0.0403	0.0092	-0.0344	0.0361	-0.0356	-0.0467	-0.0786	-0.0412	0.007	-0.0213
COc1cccc(OCCCN)c1-c1cc(Nc2cnc(C#N)cn2)n[nH]1 [Prexasertib] + Cc1cc2ncnn2cc1Nc1ncc2c(n1)n(C1CCOCC1)c(=O)n2C [AZD7648] (first compound max 1 µM, 7x7, partner max 10 µM)	-0.0051	-0.0274	-0.0753	0.0328	-0.0934	0.0035	0.0201	-0.0405	-0.0687	-0.0322	-0.0079	-0.0047	-0.0428	-0.0556	0.0337	-0.0261	-0.0545	-0.0686	0.0236	-0.0692
COc1cccc(OCCCN)c1-c1cc(Nc2cnc(C#N)cn2)n[nH]1 [Prexasertib] + O=C(c1cc(Cc2n[nH]c(=O)c3ccccc23)ccc1F)N1CCN(C(=O)C2CC2)CC1 [Olaparib] (first compound max 1 µM, 7x7, partner max 10 µM)	0.101	-0.111	-0.0336	0.0101	-0.046	-0.109	-0.0074	-0.051	-0.129	-0.125	-0.0708	-0.0553	-0.0891	-0.024	0.0332	-0.0352	-0.099	-0.12	-0.074	0.0014
COc1cc2c(cc1OCCCCCOc1cc3c(cc1OC)C(=O)N1C=C(C)C[C@H]1C=N3)N=C[C@@H]1CC(C)=CN1C2=O [SG3199] + O=C(c1cc(Cc2n[nH]c(=O)c3ccccc23)ccc1F)N1CCN(C(=O)C2CC2)CC1 [Olaparib] (first compound max 0.001 µM, 7x7, partner max 10 µM)	-0.0289	-0.0802	-0.0456	-0.0166	-0.0444	-0.0205	-0.0312	-0.0105	-0.0455	-0.0025	-0.0489	-0.0283	-0.0652	-0.0524	-0.0136	0.0028	-0.027	-0.0477	-0.0362	0.0084
